As usually defined, the Kd is a measure of binding affinity in units of concentration.

For this assay, the target named is Galectin-7 (Homo sapiens, UniProt P47929). Description: Binding affinity to human Gal-7 assessed as dissociation constant by fluorescence polarization assay. (In fluorescence polarisation assays a small probe gives low polarisation when free and higher when bound to something large.)
Galectin-7, sequence (P47929 whole entry): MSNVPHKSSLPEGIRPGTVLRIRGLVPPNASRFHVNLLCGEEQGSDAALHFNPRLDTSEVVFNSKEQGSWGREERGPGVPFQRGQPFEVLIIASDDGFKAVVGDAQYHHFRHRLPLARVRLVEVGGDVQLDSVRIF

Regarding `CS[C@@H]1O[C@H](CO)[C@H](O)[C@H](NC(=O)c2ccc(C)cc2)[C@H]1OP(=O)(O)OCc1ccccc1`, the Kd came to 450 µM. The figure for `COP(=O)(O)O[C@@H]1[C@@H](NC(=O)c2ccc(C)cc2)[C@@H](O)[C@@H](CO)O[C@H]1SC` is 240 µM.
